Source: patent US9668477B2, “Active compound combinations” (BAYER CROPSCIENCE AG, priority 2012, dated 2017)

Columns and labels:
Type in all cases: in vivo
Pyrenophora teres = assay: Pyrenophora teres-test (barley)/preventive; details: Table F1, 8 days after inoculation
Procedure: (§1) Solvent: 49 parts by weight of N,N-dimethylacetamide
(§2) Emulsifier: 1 part by weight of alkylaryl polyglycol ether
(§3) To produce a suitable preparation of active compound, 1 part by weight of active compound or active compound combination is mixed with the stated amounts of solvent and emulsifier, and the concentrate is diluted with water to the desired concentration.
(§4) To test for preventive activity, young plants are sprayed with the preparation of active compound or active compound combination at the stated rate of application.
After the spray coating has been dried, the plants are sprayed with a spore suspension of Pyrenophora teres. The plants remain for 48 hours in an incubation cabinet at approximately 20° C. and a relative atmospheric humidity of approximately 100%.
(§5) The plants are placed in the greenhouse at a temperature of approximately 20° C. and a relative atmospheric humidity of approximately 80%.
(§6) The test is evaluated 8 days after the inoculation. 0% means an efficacy which corresponds to that of the untreated control, while an efficacy of 100% means that no disease is observed.

[1] = test system: Blumeria graminis f.sp. hordei; assay: Blumeria test (barley)/preventive; details: Table B1, 7 days after inoculation
Procedure: Solvent: 49 parts by weight of N,N-dimethylacetamide Emulsifier: 1 part by weight of alkylaryl polyglycol ether To produce a suitable preparation of active compound, 1 part by weight of active compound or active compound combination is mixed with the stated amounts of solvent and emulsifier, and the concentrate is diluted with water to the desired concentration. To test for preventive activity, young plants are sprayed with the preparation of active compound or active compound combination at the stated rate of application. After the spray coating has been dried, the plants are dusted with spores of Blumeria graminis f.sp. hordei.

Phakopsora pachyrhizi = assay: Phakopsora test (soybeans)/preventive; details: 7 days after inoculation
Alternaria solani = assay: Alternaria test (tomatoes)/preventive; details: 3 days after inoculation
Procedure: (§7) Solvent: 24.5 parts by weight of acetone • 24.5 parts by weight of dimethylacetamide
as §2
(§8) To produce a suitable preparation of active compound, 1 part by weight of active compound is mixed with the stated amounts of solvent and emulsifier, and the concentrate is diluted with water to the desired concentration.
To test for preventive activity, young plants are sprayed with the preparation of active compound at the stated rate of application. After the spray coating has dried on, the plants are inoculated with an aqueous spore suspension of Alternaria solani. The plants are then placed in an incubation cabinet at approximately 20° C. and a relative atmospheric humidity of 100%.
The test is evaluated 3 days after the inoculation. 0% means an efficacy which corresponds to that of the untreated control while an efficacy of 100% means that no disease is observed.

Uromyces appendiculatus = assay: Uromyces test (beans)/preventive; details: 10 days after inoculation
Procedure: as §7, §2, §8
To test for preventive activity, young plants are sprayed with the preparation of active compound at the stated rate of application. After the spray coating has dried on, the plants are inoculated with an aqueous spore suspension of the causal agent of bean rust (Uromyces appendiculatus) and then remain for 1 day in an incubation cabinet at approximately 20° C. and a relative atmospheric humidity of 100%.
The plants are then placed in a greenhouse at approximately 21° C. and a relative atmospheric humidity of approximately 90%.
The test is evaluated 10 days after the inoculation. 0% means an efficacy which corresponds to that of the untreated control, while an efficacy of 100% means that no disease is observed.

Puccinia triticina = assay: Puccinia triticina-test (wheat)/preventive; details: Table E1, 8 days after inoculation
Procedure: as §1, §2, §3, §4
After the spray coating has been dried, the plants are sprayed with a spore suspension of Puccinia triticina. The plants remain for 48 hours in an incubation cabinet at approximately 20° C. and a relative atmospheric humidity of approximately 100%.
as §5, §6

Sphaerotheca fuliginea = assay: Sphaerotheca test (cucumbers)/preventive; details: Table G1, 7 days after inoculation
Procedure: Solvent: 24.5 parts by weight of acetone • 24.5 parts by weight of dimethylacetamide Emulsifier: 1 part by weight of alkylaryl polyglycol ether To produce a suitable preparation of active compound, 1 part by weight of active compound is mixed with the stated amounts of solvent and emulsifier, and the concentrate is diluted with water to the desired concentration. To test for preventive activity, young plants are sprayed with the preparation of active compound at the stated rate of application. After the spray coating has dried on, the plants are inoculated with an aqueous spore suspension of Sphaerotheca fuliginea.

Venturia inaequalis = assay: Venturia test (apples)/preventive; details: Table I1, 10 days after inoculation
Procedure: Solvent: 24.5 parts by weight of acetone • 24.5 parts by weight of dimethylacetamide Emulsifier: 1 part by weight of alkylaryl polyglycol ether To produce a suitable preparation of active compound, 1 part by weight of active compound is mixed with the stated amounts of solvent and emulsifier, and the concentrate is diluted with water to the desired concentration. To test for preventive activity, young plants are sprayed with the preparation of active compound at the stated rate of application.

[2] = Phakopsora pachyrhizi, 168 h, Table D1, 1 ppm a.i., read-out: Efficacy in % found

CC(C)CC(C)c1sccc1NC(=O)c1cn(C)nc1C(F)(F)F (centres unmarked) [2.21, penthiopyrad]
Efficacy in % found (Pyrenophora teres; 80 ppm a.i.): 63% | Efficacy in % found ([1]; 80 ppm a.i.): 30%

O=C(NCCc1ncc(C(F)(F)F)cc1Cl)c1ccccc1C(F)(F)F [2.6, fluopyram]
Efficacy in % found (Pyrenophora teres; 40 ppm a.i.): 94% | pest or weed control at 4 ppm (Phakopsora pachyrhizi; Phakopsora pachyrhizi, 168 h, Table D1, 4 ppm a.i., read-out: Efficacy in % found): 0%

CC(C)c1ccc(Cl)cc1CN(C(=O)c1c(C(F)F)nn(C)c1F)C1CC1 [15.151, N-(5-chloro-2-isopropylbenzyl)-N-cyclopropyl-3-(difluoromethyl)-5-fluoro-1-methyl-1H-pyrazole-4-carboxamide]
Efficacy in % found (Pyrenophora teres; 20 ppm a.i.): 88% | Efficacy in % found (Alternaria solani; Table A1, 0.25 ppm a.i.): 39% | Efficacy in % found ([1]; 20 ppm a.i.): 0%

Cn1cc(C(=O)Nc2ccccc2-c2cc(F)c(F)c(F)c2)c(C(F)F)n1 [2.8, fluxapyroxad]
Efficacy in % found (Pyrenophora teres; 40 ppm a.i.): 94% | Efficacy in % found (Phakopsora pachyrhizi; Table D1, 1 ppm a.i.): 0% | Efficacy in % found (Uromyces appendiculatus; Table H1, 0.25 ppm a.i.): 0%

N#Cc1c(Cl)c(Cl)c(Cl)c(C#N)c1Cl [5.4, chlorothalonil]
Efficacy in % found (Uromyces appendiculatus; Table H2, 20 ppm a.i.): 0% | Efficacy in % found (Puccinia triticina; 160 ppm a.i.): 20% | Efficacy in % found (Sphaerotheca fuliginea; 5 ppm a.i.): 19% | Efficacy in % found (Alternaria solani; Table A2, 20 ppm a.i.): 8% | Efficacy in % found (Venturia inaequalis; 20 ppm a.i.): 68%

CC1(C)CCC(Cc2ccc(Cl)cc2)C1(O)Cn1cncn1 (centres unmarked) [1.30, metconazole]
Efficacy in % found (Puccinia triticina; 40 ppm a.i.): 70%

CC1CC(C)(C)c2cccc(NC(=O)c3cn(C)nc3C(F)F)c21 (centres unmarked) [2.32, 3-(difluoromethyl)-1-methyl-N-(1,1,3-trimethyl-2,3-dihydro-1H-inden-4-yl)-1H-pyrazole-4-carboxamide]
Efficacy in % found ([1]; 80 ppm a.i.): 30%

CO/C=C(/C(=O)OC)c1ccccc1COc1cccc(C(F)(F)F)n1 [3.16, picoxystrobin]
Efficacy in % found (Pyrenophora teres; 40 ppm a.i.): 75% | Efficacy in % found (Uromyces appendiculatus; Table H1, 2.5 ppm a.i.): 65% | Efficacy in % found ([1]; 40 ppm a.i.): 30%

OC(Cc1ccccc1Cl)(Cn1nc[nH]c1=S)C1(Cl)CC1 (centres unmarked) [1.41, prothioconazole]
pest or weed control at 0.5 ppm (Phakopsora pachyrhizi; Phakopsora pachyrhizi, 168 h, Table D2, 0.5 ppm a.i., read-out: Efficacy in % found): 20% | Efficacy in % found (Puccinia triticina; 80 ppm a.i.): 20%

Cn1c(=O)c2sc3c(=O)n(C)c(=O)c3sc2c1=O [15.61, 2,6-dimethyl-1H,5H-[1,4]dithiino[2,3-c:5,6-c′]dipyrrole-1,3,5,7(2H,6H)-tetrone]
Efficacy in % found (Puccinia triticina; 800 ppm a.i.): 40% | Efficacy in % found (Sphaerotheca fuliginea; 25 ppm a.i.): 38% | Efficacy in % found (Alternaria solani; Table A2, 50 ppm a.i.): 23%

CON=C(C(=O)OC)c1ccccc1CON=C(C)c1cccc(C(F)(F)F)c1 [3.22, trifloxystrobin]
Efficacy in % found (Puccinia triticina; 20 ppm a.i.): 60% | Efficacy in % found (Venturia inaequalis; 0.5 ppm a.i.): 86%

CC(C)(C)C(O)(CCc1ccc(Cl)cc1)Cn1cncn1 (centres unmarked) [1.47, tebuconazole]
pest or weed control at 1 ppm (Phakopsora pachyrhizi; [2]): 58% | Efficacy in % found (Uromyces appendiculatus; Table H2, 2 ppm a.i.): 30% | Efficacy in % found (Sphaerotheca fuliginea; 2.5 ppm a.i.): 38%

Cn1cc(C(=O)Nc2ccc(F)cc2-c2ccc(Cl)c(Cl)c2)c(C(F)F)n1 [2.1, bixafen]
Efficacy in % found (Pyrenophora teres; 80 ppm a.i.): 94% | Efficacy in % found (Phakopsora pachyrhizi; Table D1, 1 ppm a.i.): 0% | Efficacy in % found (Alternaria solani; Table A1, 0.5 ppm a.i.): 43% | Efficacy in % found (Venturia inaequalis; 0.5 ppm a.i.): 0%

COC(=O)N(OC)c1ccccc1COc1ccn(-c2ccc(Cl)cc2)n1 [3.17, pyraclostrobin]
Efficacy in % found (Puccinia triticina; 20 ppm a.i.): 20%

Cn1cc(C(=O)Nc2cccc3c2[C@@H]2CC[C@H]3C2=C(Cl)Cl)c(C(F)F)n1 (racemic) [2.29, benzovindiflupyr]
Efficacy in % found (Pyrenophora teres; 40 ppm a.i.): 0% | Efficacy in % found (Phakopsora pachyrhizi; Table D1, 0.5 ppm a.i.): 8%

CO/N=C(/C1=NOCCO1)c1ccccc1Oc1ncnc(Oc2ccccc2Cl)c1F [3.12, fluoxastrobin]
Efficacy in % found (Pyrenophora teres; 20 ppm a.i.): 13%

CC(C1CC1)C(O)(Cn1cncn1)c1ccc(Cl)cc1 (centres unmarked) [1.5, cyproconazole]
pest or weed control at 1 ppm (Phakopsora pachyrhizi; [2]): 63% | Efficacy in % found (Uromyces appendiculatus; Table H3, 1 ppm a.i.): 57% | Efficacy in % found (Venturia inaequalis; 2 ppm a.i.): 40%
